According to publication PMC7551256, “Biochemical Characterization of a Novel Endo-1,3-β-Glucanase from the Scallop Chlamys farreri” (Marine Drugs, 2020):

Columns and labels:
Lcf [1] = biological target: T1, Lcf (Azumapecten farreri, UniProt A0A140H631); assay: ESI-MS of transglycosylation products; type: biochemical; settings: glycosyl acceptor 2 mg/mL; donor laminarihexaose 2 mg/mL; 25 mM sodium acetate pH 5.6, 37 °C, 5 min
T1 construct: full length without signal peptide; secreted from Brevibacillus (pNCMO2, BamHI/XhoI); about 37 kDa; primers encode AGFRDDF at N-terminus and DYIEMIPH-stop at C-terminus
T1 sequence (A0A140H631 16-340): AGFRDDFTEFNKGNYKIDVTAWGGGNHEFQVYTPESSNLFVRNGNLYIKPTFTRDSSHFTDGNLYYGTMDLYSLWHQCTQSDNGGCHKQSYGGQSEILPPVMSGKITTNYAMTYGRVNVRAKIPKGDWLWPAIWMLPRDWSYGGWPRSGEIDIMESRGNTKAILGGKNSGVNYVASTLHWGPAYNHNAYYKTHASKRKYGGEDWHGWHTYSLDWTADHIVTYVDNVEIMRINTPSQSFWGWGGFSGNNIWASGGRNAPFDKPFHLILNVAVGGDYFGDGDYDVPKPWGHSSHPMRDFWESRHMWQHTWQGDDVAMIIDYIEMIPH

Lcf [2] = biological target: T1, Lcf; assay: TLC of hydrolysis products; ESI-MS; type: biochemical; settings: 0.1% (w/w) substrate, 50 mM sodium acetate pH 5.6, 37 °C; hydrolysed, also glycosyl donor

Compound | ESI-MS of transglycosylation products (Lcf [1]) | TLC of hydrolysis products; ESI-MS (Lcf [2])
OC[C@@H](O)[C@@H](O)[C@H](O)[C@@H](O)CO [D-sorbitol] | three transglycosylation products were observed in the presence of D-sorbitol | 
OC[C@H]1O[C@@H](O[C@@H]2[C@@H](O)[C@H](O[C@@H]3[C@@H](O)[C@H](O[C@@H]4[C@@H](O)[C@H](O[C@@H]5[C@@H](O)[C@H](O[C@H]6[C@H](O)[C@@H](CO)OC(O)[C@@H]6O)O[C@H](CO)[C@H]5O)O[C@H](CO)[C@H]4O)O[C@H](CO)[C@H]3O)O[C@H](CO)[C@H]2O)[C@H](O)[C@@H](O)[C@@H]1O (some centres unmarked) [laminarihexaose] |  | Lcf showed a more efficient cleavage rate toward laminarinexaose
